According to patent US9849132B2, “Products and pharmaceutical compositions” (Intra-Cellular Therapies, Inc., priority 2014, dated 2017):

Biological target: PDE1 (3′,5′-cyclic-nucleotide-specific bovine brain phosphodiesterase)
Assay: Measurement of PDE1 inhibition in vitro using IMAP phosphodiesterase assay kit
Type: biochemical
Settings: IMAP fluorescence polarization, FL-GMP substrate, bovine brain phosphodiesterase with calmodulin
Source text: Phosphodiesterase 1B (PDE1B) is a calcium/calmodulin dependent phosphodiesterase enzyme that converts cyclic guanosine monophosphate (cGMP) to 5′-guanosine monophosphate (5′-GMP). PDE1B can also convert a modified cGMP substrate, such as the fluorescent molecule cGMP-fluorescein, to the corresponding GMP-fluorescein. The generation of GMP-fluorescein from cGMP-fluorescein can be quantitated, using, for example, the IMAP (Molecular Devices, Sunnyvale, Calif.) immobilized-metal affinity particle reagent.
Briefly, the IMAP reagent binds with high affinity to the free 5′-phosphate that is found in GMP-fluorescein and not in cGMP-fluorescein. The resulting GMP-fluorescein—IMAP complex is large relative to cGMP-fluorescein. Small fluorophores that are bound up in a large, slowly tumbling, complex can be distinguished from unbound fluorophores, because the photons emitted as they fluoresce retain the same polarity as the photons used to excite the fluorescence.
In the phosphodiesterase assay, cGMP-fluorescein, which cannot be bound to IMAP, and therefore retains little fluorescence polarization, is converted to GMP-fluorescein, which, when bound to IMAP, yields a large increase in fluorescence polarization (Δmp). Inhibition of phosphodiesterase, therefore, is detected as a decrease in Δmp. […]
A decrease in GMP concentration, measured as decreased Δmp, is indicative of inhibition of PDE activity. […]

CN1C(=O)c2c(nn(Cc3ccc(-c4ccccn4)cc3)c2Nc2ccccc2)N2C1=N[C@@H]1CCC[C@@H]12 [Example 1, (6aR,9aS)-5,6a,7,8,9,9a-hexahydro-5-methyl-3-(phenylamino)-2-((4-Pyridin-2yl)-benzyl)-cyclopent[4,5]imidazo[1,2-a]pyrazolo[4,3-e]pyrimidin-4(2H)-one]
IC50: 0.105 nM
